In ChEMBL document CHEMBL1287766, “Discovery of N-benzyl-N'-(4-pipyridinyl)urea CCR5 antagonists as anti-HIV-1 agents (II): modification of the acyl portion” (Bioorg Med Chem Lett, 2010):

What was measured:
[1] = Apparent permeability across MDCK cells at pH 7.05; format: ADME, cell-based, Canis lupus familiaris; settings: dog
[2] = Clearance in Sprague-Dawley rat at 1 mg/kg; format: ADME, organism-based; parameters: dose 1 mg/kg; settings: in vivo
[3] = test system: Human immunodeficiency virus 1; assay: Antiviral activity against HIV1 BaL in human PBL cells; format: functional, organism-based; settings: Human immunodeficiency virus 1, BaL
[4] = test system: Human immunodeficiency virus 1; assay: Antiviral activity against HIV1 BaL in human HOS cells; format: functional, organism-based; settings: Human immunodeficiency virus 1, BaL
[5] = test system: HOS; assay: Cytotoxicity against human HOS cells up to 1 uM; format: cell-based
[6] = test system: PBL; assay: Cytotoxicity against human PBL cells up to 1 uM; format: cell-based
[7] = Oral bioavailability in Sprague-Dawley rat at 1 mg/kg; format: ADME, organism-based; settings: in vivo
[8] = Half life in Sprague-Dawley rat at 1 mg/kg; format: ADME, organism-based; parameters: dose 1 mg/kg; settings: in vivo
[9] = biological target: Cytochrome P450 3A4 (Homo sapiens, UniProt P08684); assay: Inhibition of CYP3A4; format: ADME
Chain of Cytochrome P450 3A4 (P08684 whole entry): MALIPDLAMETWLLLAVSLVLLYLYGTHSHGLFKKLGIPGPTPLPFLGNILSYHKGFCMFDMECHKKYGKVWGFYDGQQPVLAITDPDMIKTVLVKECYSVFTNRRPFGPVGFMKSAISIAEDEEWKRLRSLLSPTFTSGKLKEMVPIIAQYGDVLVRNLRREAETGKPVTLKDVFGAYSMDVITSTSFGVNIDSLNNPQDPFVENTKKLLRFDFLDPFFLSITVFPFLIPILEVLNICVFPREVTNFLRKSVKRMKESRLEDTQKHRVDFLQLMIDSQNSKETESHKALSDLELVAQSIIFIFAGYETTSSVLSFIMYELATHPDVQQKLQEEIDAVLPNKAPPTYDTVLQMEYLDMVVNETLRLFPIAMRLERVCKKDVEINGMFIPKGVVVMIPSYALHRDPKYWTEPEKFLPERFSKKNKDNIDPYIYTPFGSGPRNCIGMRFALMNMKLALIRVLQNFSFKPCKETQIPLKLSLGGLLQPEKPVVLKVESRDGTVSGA

| SMILES | Papp [1] [×10⁻⁶ cm/s] | clearance [2] [mL/min/kg] | IC50 [3] [nM] | IC50 [4] [nM] | Activity [5] | Activity [6] | bioavailability [7] [%] | half-life [8] [h] | inhibition (INH) [9] |
| --- | --- | --- | --- | --- | --- | --- | --- | --- | --- |
| N#Cc1ccc(CNC(=O)N(c2cccc(F)c2)C2CCN(CCC3(c4cccc(F)c4)CCN(C(=O)c4cc(S(N)(=O)=O)c(F)cc4Cl)CC3)CC2)cc1 | < 0.3 | 9.7 | 0.9 | 6.8 | Non-toxic | Non-toxic |  |  |  |
| CC(C)(CO)C(=O)N1CCC(CCN2CCC(N(C(=O)NCc3ccc(C#N)cc3)c3cccc(F)c3)CC2)(c2cccc(F)c2)CC1 |  | 22 | 20 | 19 | Non-toxic | Non-toxic | 63 | 2.6 |  |
| N#Cc1ccc(CNC(=O)N(c2cccc(F)c2)C2CCN(CCC3(c4cccc(F)c4)CCN(C(=O)C4CCOCC4)CC3)CC2)cc1 |  | 25 | 22 | 17 | Non-toxic | Non-toxic | 11 | 2.6 |  |
| N#Cc1ccc(CNC(=O)N(c2cccc(F)c2)C2CCN(CCC3(c4cccc(F)c4)CCN(C(=O)c4ccnc(Cl)c4)CC3)CC2)cc1 |  | 14.6 | 13 | 19 | Non-toxic | Non-toxic | 64 | 5.8 | Active |
| N#Cc1ccc(CNC(=O)N(c2cccc(F)c2)C2CCN(CCC3(c4cccc(F)c4)CCN(C(=O)c4c(Cl)ccc(S(N)(=O)=O)c4Cl)CC3)CC2)cc1 | < 0.3 | 16 | 2.8 | 5.7 | Non-toxic | Non-toxic |  |  |  |
| N#Cc1ccc(CNC(=O)N(c2cccc(F)c2)C2CCN(CCC3(c4cccc(F)c4)CCN(C(=O)c4cc(S(=O)(=O)N5CCCC5)c(F)cc4Cl)CC3)CC2)cc1 |  | 9.5 | 0.6 | 1.5 | Non-toxic | Non-toxic | 9 |  |  |
| N#Cc1ccc(CNC(=O)N(c2cccc(F)c2)C2CCN(CCC3(c4cccc(F)c4)CCN(C(=O)c4nsnc4O)CC3)CC2)cc1 |  | 124 | 41 | 1.1 | Non-toxic | Non-toxic | 0 |  | Active |
| N#Cc1ccc(CNC(=O)N(c2cccc(F)c2)C2CCN(CCC3(c4cccc(F)c4)CCN(C(=O)c4cc(S(N)(=O)=O)c(F)cc4F)CC3)CC2)cc1 | < 0.3 | 31 | 5.2 | 4 | Non-toxic | Non-toxic |  |  |  |
| CC(C)(C)NS(=O)(=O)c1ccc(Cl)c(C(=O)N2CCC(CCN3CCC(N(C(=O)NCc4ccc(C#N)cc4)c4cccc(F)c4)CC3)(c3cccc(F)c3)CC2)c1Cl |  | 9 | 0.8 | 3 | Non-toxic | Non-toxic | 10 |  |  |
| N#Cc1ccc(CNC(=O)N(c2cccc(F)c2)C2CCN(CCC3(c4cccc(F)c4)CCN(C(=O)c4cn[nH]c4C(F)(F)F)CC3)CC2)cc1 |  | 13 |  | 8.2 | Non-toxic | Non-toxic | 3 | 7.2 | Active |
| CC(C)(C#N)C(=O)N1CCC(CCN2CCC(N(C(=O)NCc3ccc(C#N)cc3)c3cccc(F)c3)CC2)(c2cccc(F)c2)CC1 |  | 12 | 49 | 6.4 | Non-toxic | Non-toxic | 28 | 4.3 |  |
| CC(CO)(CO)C(=O)N1CCC(CCN2CCC(N(C(=O)NCc3ccc(C#N)cc3)c3cccc(F)c3)CC2)(c2cccc(F)c2)CC1 |  | 26 |  | 22 | Non-toxic | Non-toxic | 7 | 4.4 |  |
| CC(C)(C)C(=O)N1CCC(CCN2CCC(N(C(=O)NCc3ccc(C#N)cc3)c3cccc(F)c3)CC2)(c2cccc(F)c2)CC1 |  | 10 | 5.3 | 11 | Non-toxic | Non-toxic | 11 | 2.4 |  |
| N#Cc1ccc(CNC(=O)N(c2cccc(F)c2)C2CCN(CCC3(c4cccc(F)c4)CCN(C(=O)c4cc(S(=O)(=O)N5CC[C@H](O)C5)c(F)cc4F)CC3)CC2)cc1 |  | 43 |  | 1.3 | Non-toxic | Non-toxic | 0 |  |  |
| Cn1cc(Cl)c(C(=O)N2CCC(CCN3CCC(N(C(=O)NCc4ccc(C#N)cc4)c4cccc(F)c4)CC3)(c3cccc(F)c3)CC2)n1 |  | 25 | 22 | 17 | Non-toxic | Non-toxic | 11 | 2.6 | Active |
| N#Cc1ccc(CNC(=O)N(c2cccc(F)c2)C2CCN(CCC3(c4cccc(F)c4)CCN(C(=O)c4cc(S(=O)(=O)N5CCCC5)c(F)cc4F)CC3)CC2)cc1 |  | 29 | 0.6 | 0.9 | Non-toxic | Non-toxic | 10 |  |  |
| N#Cc1ccc(CNC(=O)N(c2cccc(F)c2)C2CCN(CCC3(c4cccc(F)c4)CCN(C(=O)c4c(Cl)cncc4Cl)CC3)CC2)cc1 |  | 24 | 4.8 | 2.7 | Non-toxic | Non-toxic | 50 | 4.9 | Active |
| N#Cc1ccc(CNC(=O)N(c2cccc(F)c2)C2CCN(CCC3(c4cccc(F)c4)CCN(C(=O)c4cc(S(=O)(=O)N5CC[C@H](O)C5)c(F)cc4Cl)CC3)CC2)cc1 |  | 24 | 0.5 | 1.5 | Non-toxic | Non-toxic | 8 |  |  |
| N#Cc1ccc(CNC(=O)N(c2cccc(F)c2)C2CCN(CCC3(c4cccc(F)c4)CCN(C(=O)c4c(F)ccc(S(N)(=O)=O)c4F)CC3)CC2)cc1 |  | 25 | 2 | 6.6 | Non-toxic | Non-toxic |  |  |  |
| N#Cc1ccc(CNC(=O)N(c2cccc(F)c2)C2CCN(CCC3(c4cccc(F)c4)CCN(C(=O)c4cccnc4F)CC3)CC2)cc1 |  | 22.5 | 6.1 | 6.4 | Non-toxic | Non-toxic | 60 | 3.4 | Active |
